Results published in patent US20090018134A1, “Compounds - 945” (AstraZeneca AB, priority 2007, published 2009).

Molecular target: T1, mTOR (Homo sapiens, UniProt P42345)
T1 construct: FLAG; made in house
Test: In Vitro mTOR Kinase Assay (Echo), Test (a)(ii)
Type: biochemical
Conditions: table of enzyme assay Test (a)(ii); read-out: Test (a)(ii) IC50
Outline: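 Enzyme: HEK293-expressed, FLAG-purified mTOR C-terminal fragment (aa 1362-2549). Rxn 2 h RT with biotinylated peptide, stopped with EDTA 50 mM/BSA/Tris pH 7.4. Detection: T389 phospho-antibody AlphaScreen, 680 nm excitation. IC50.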

T1 sequence (P42345 1362-2549): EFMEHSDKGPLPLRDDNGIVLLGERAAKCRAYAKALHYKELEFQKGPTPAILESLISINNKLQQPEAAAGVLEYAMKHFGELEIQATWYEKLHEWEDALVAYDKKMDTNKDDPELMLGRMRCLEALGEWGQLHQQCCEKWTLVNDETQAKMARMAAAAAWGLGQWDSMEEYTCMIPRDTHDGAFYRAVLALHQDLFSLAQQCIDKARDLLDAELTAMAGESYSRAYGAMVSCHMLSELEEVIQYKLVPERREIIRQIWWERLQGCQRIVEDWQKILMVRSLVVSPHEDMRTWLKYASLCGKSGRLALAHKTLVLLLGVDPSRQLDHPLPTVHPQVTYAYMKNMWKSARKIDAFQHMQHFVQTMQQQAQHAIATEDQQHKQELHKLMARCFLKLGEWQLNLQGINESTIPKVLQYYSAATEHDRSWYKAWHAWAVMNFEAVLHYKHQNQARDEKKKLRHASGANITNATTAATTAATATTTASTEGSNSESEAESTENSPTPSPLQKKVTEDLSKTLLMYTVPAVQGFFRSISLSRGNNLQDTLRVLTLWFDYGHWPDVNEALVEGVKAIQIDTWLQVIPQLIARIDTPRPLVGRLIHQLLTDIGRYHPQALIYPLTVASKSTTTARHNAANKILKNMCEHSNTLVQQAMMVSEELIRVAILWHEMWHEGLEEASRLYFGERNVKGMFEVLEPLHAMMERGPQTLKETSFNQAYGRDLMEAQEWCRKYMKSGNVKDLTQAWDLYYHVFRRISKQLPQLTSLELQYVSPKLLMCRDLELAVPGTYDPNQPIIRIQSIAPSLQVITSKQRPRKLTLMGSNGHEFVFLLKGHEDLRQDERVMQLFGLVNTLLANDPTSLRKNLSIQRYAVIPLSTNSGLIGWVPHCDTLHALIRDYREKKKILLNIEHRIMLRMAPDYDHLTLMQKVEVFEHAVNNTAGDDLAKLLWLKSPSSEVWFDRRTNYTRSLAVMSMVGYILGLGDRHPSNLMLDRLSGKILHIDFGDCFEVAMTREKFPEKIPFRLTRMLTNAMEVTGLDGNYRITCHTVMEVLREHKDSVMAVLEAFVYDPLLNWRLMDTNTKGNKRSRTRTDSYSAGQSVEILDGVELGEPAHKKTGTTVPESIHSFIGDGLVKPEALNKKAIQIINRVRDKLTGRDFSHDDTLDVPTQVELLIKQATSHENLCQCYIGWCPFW

SMILES	IC50 [nM]
C[C@H]1COCCN1c1cc(C2(S(=O)(=O)c3ccncc3)CC2)nc(-c2ccc(NC(=S)NCCO)cc2)n1 [Example 37ad, 3-(2-hydroxyethyl)-1-[4-[4-[(3S)-3-methylmorpholin-4-yl]-6-(1-pyridin-4-ylsulfonylcyclopropyl)pyrimidin-2-yl]phenyl]thiourea]	2.63
C[C@H]1COCCN1c1cc(C2(S(=O)(=O)c3ccncc3)CC2)nc(-c2ccc(NC(=S)NC3CC3)cc2)n1 [Example 37ae, 3-cyclopropyl-1-[4-[4-[(3S)-3-methylmorpholin-4-yl]-6-(1-pyridin-4-ylsulfonylcyclopropyl)pyrimidin-2-yl]phenyl]thiourea]	9.52
CNC(=S)Nc1ccc(-c2nc(N3CCOC[C@@H]3C)cc(C3(S(=O)(=O)c4ccncc4)CC3)n2)cc1 [Example 37af, 3-methyl-1-[4-[4-[(3S)-3-methylmorpholin-4-yl]-6-(1-pyridin-4-ylsulfonylcyclopropyl)pyrimidin-2-yl]phenyl]thiourea]	23.3
C[C@H]1COCCN1c1cc(C2(S(=O)(=O)c3ccccc3)CC2)nc(-c2ccc(NC(=S)NC(C)(C)CO)cc2)n1 [Example 37ag, 1-[4-[4-[1-(benzenesulfonyl)cyclopropyl]-6-[(3S)-3-methylmorpholin-4-yl]pyrimidin-2-yl]phenyl]-3-(1-hydroxy-2-methylpropan-2-yl)thiourea]	13.4
C[C@H]1COCCN1c1cc(C2(S(=O)(=O)C3CC3)CC2)nc(-c2ccc(NC(=S)NC3CC3)cc2)n1 [Example 37b, 3-cyclopropyl-1-[4-[4-(1-cyclopropylsulfonylcyclopropyl)-6-[(3S)-3-methylmorpholin-4-yl]pyrimidin-2-yl]phenyl]thiourea]	12.4
C[C@H]1COCCN1c1cc(C2(S(=O)(=O)CCCO)CC2)nc(-c2ccc(NC(=S)NC3CCC3)cc2)n1 [Example 37d, 3-cyclobutyl-1-[4-[4-[1-(3-hydroxypropylsulfonyl)cyclopro-pyl]-6-[(3S)-3-methylmorpholin-4-yl]pyrimidin-2-yl]phenyl]thiourea]	4.39
C[C@H]1COCCN1c1cc(C2(S(=O)(=O)CCCO)CC2)nc(-c2ccc(NC(=S)NCCC#N)cc2)n1 [Example 37e, 3-(2-cyanoethyl)-1-[4-[4-[1-(3-hydroxypropylsulfonyl)cyclopro-pyl]-6-[(3S)-3-methylmorpholin-4-yl]pyrimidin-2-yl]phenyl]thiourea]	4.9
CNC(=S)Nc1ccc(-c2nc(N3CCOC[C@@H]3C)cc(C3(S(=O)(=O)CCCO)CC3)n2)cc1 [Example 37g, 1-[4-[4-[1-(3-hydroxypropylsulfonyl)cyclopro-pyl]-6-[(3S)-3-methylmorpholin-4-yl]pyrimidin-2-yl]phenyl]-3-methylthiourea]	17.9
C[C@H]1COCCN1c1cc(C2(S(=O)(=O)CCCO)CC2)nc(-c2ccc(NC(=S)Nc3cnn(C)c3)cc2)n1 [Example 37j, 1-[4-[4-[1-(3-hydroxypropylsulfonyl)cyclopro-pyl]-6-[(3S)-3-methylmorpholin-4-yl]pyrimidin-2-yl]phenyl]-3-(1-methylpyrazol-4-yl)thiourea]	30.9
CCCNC(=S)Nc1ccc(-c2nc(N3CCOC[C@@H]3C)cc(C3(S(=O)(=O)CCCO)CC3)n2)cc1 [Example 37l, 3-[4-[4-[1-(3-hydroxypropylsulfonyl)cyclopro-pyl]-6-[(3S)-3-methylmorpholin-4-yl]pyrimidin-2-yl]phenyl]-1-propylthiourea]	32
C[C@H]1COCCN1c1cc(C2(S(C)(=O)=O)CC2)nc(-c2ccc(NC(=S)NCCCO)cc2)n1 [Example 37m, 3-(3-hydroxypropyl)-1-[4-[4-[(3S)-3-methylmorpholin-4-yl]-6-(1-methylsulfonylcyclopropyl)pyri-midin-2-yl]phenyl]thiourea]	50.6

Continued, values first:

IC50 [nM]	SMILES
39.3	CCCNC(=S)Nc1ccc(-c2nc(N3CCOC[C@@H]3C)cc(C3(S(C)(=O)=O)CC3)n2)cc1 [Example 37n, 1-[4-[4-[(3S)-3-methylmorpholin-4-yl]-6-(1-methylsulfonylcyclopropyl)pyri-midin-2-yl]phenyl]-3-propylthiourea]
33	C[C@H]1COCCN1c1cc(C2(S(C)(=O)=O)CC2)nc(-c2ccc(NC(=S)Nc3cnn(C)c3)cc2)n1 [Example 37o, 1-[4-[4-[(3S)-3-methylmorpholin-4-yl]-6-(1-methylsulfonylcyclopropyl)pyri-midin-2-yl]phenyl]-3-(1-methylpyrazol-4-yl)thiourea]
5.34	CNC(=S)Nc1ccc(-c2nc(N3CCOC[C@@H]3C)cc(C3(S(=O)(=O)c4nc(C)cs4)CC3)n2)cc1 [Example 37p, 3-methyl-1-[4-[4-[(3S)-3-methylmorpholin-4-yl]-6-[1-[(4-methyl-1,3-thiazol-2-yl)sulfonyl]cyclopropyl]pyri-midin-2-yl]phenyl]thiourea]
2.94	Cc1csc(S(=O)(=O)C2(c3cc(N4CCOC[C@@H]4C)nc(-c4ccc(NC(=S)NC5CC5)cc4)n3)CC2)n1 [Example 37q, 3-cyclopropyl-1-[4-[4-[(3S)-3-methylmorpholin-4-yl]-6-[1-[(4-methyl-1,3-thiazol-2-yl)sulfonyl]cyclopropyl]pyri-midin-2-yl]phenyl]thiourea]
1.62	Cc1csc(S(=O)(=O)C2(c3cc(N4CCOC[C@@H]4C)nc(-c4ccc(NC(=S)NCCO)cc4)n3)CC2)n1 [Example 37r, 3-(2-hydroxyethyl)-1-[4-[4-[(3S)-3-methylmorpholin-4-yl]-6-[1-[(4-methyl-1,3-thiazol-2-yl)sulfonyl]cyclopropyl]pyri-midin-2-yl]phenyl]thiourea]
7.56	CNC(=S)Nc1ccc(-c2nc(N3CCOC[C@@H]3C)cc(C3(S(=O)(=O)c4ccc(F)cc4)CC3)n2)cc1 [Example 37s, 1-[4-[4-[1-(4-fluorophenyl)sulfonylcyclopropyl]-6-[(3S)-3-methylmorpholin-4-yl]pyrimidin-2-yl]phenyl]-3-methylthiourea]
8.89	C[C@H]1COCCN1c1cc(C2(S(=O)(=O)c3ccc(F)cc3)CC2)nc(-c2ccc(NC(=S)NC3CC3)cc2)n1 [Example 37t, 3-cyclopropyl-1-[4-[4-[1-(4-fluorophenyl)sulfonylcyclopropyl]-6-[(3S)-3-methylmorpholin-4-yl]pyrimidin-2-yl]phenyl]thiourea]
0.395	C[C@H]1COCCN1c1cc(C2(S(=O)(=O)c3ccc(F)cc3)CC2)nc(-c2ccc(NC(=S)NCCO)cc2)n1 [Example 37u, 1-[4-[4-[1-(4-fluorophenyl)sulfonylcyclopropyl]-6-[(3S)-3-methylmorpholin-4-yl]pyrimidin-2-yl]phenyl]-3-(2-hydroxyethyl)thiourea]
5.49	C[C@H]1COCCN1c1cc(C2(S(=O)(=O)c3ccccc3)CC2)nc(-c2ccc(NC(=S)NC3CC3)cc2)n1 [Example 37v, 1-[4-[4-[1-(benzenesulfonyl)cyclopropyl]-6-[(3S)-3-methylmorpholin-4-yl]pyrimidin-2-yl]phenyl]-3-cyclopropylthiourea]
1.37	C[C@H]1COCCN1c1cc(C2(S(=O)(=O)c3ccccc3)CC2)nc(-c2ccc(NC(=S)Nc3cnn(C)c3)cc2)n1 [Example 37w, 1-[4-[4-[1-(benzenesulfonyl)cyclopropyl]-6-[(3S)-3-methylmorpholin-4-yl]pyrimidin-2-yl]phenyl]-3-(1-methylpyrazol-4-yl)thiourea]
